Among the test systems are M19-MEL; HOP-18; SNB-78; DMS-273; KM-20L2; XF498; DMS-114; LXFL 529; RXF 631.
Common to all, as to assay: inhibition of tumour cell growth, NCI panel, 48 h

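Compound exposure: 48 hours, 5 concentrations, 96-well plates. At the GI50, growth is halved.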 Calls of active or inactive are those of the source. Cut-off read from the data, not from the text of the source: active = GI50 up to about 1.1 µM and inactive = higher. Where a SMILES comes first, the peptide text is derived from it. [ ]: non-standard residue; d: D form. The star is where a group is joined. ξ: configuration not given here. NMeF = CN[C@@H](Cc1ccccc1)C(=O)O; NMeV = CN[C@H](C(=O)O)C(C)C; ξNMeN = CNC(CC(N)=O)C(=O)O; NMeA = CN[C@@H](C)C(=O)O; ξNMeV = CNC(C(=O)O)C(C)C; Boc = CC(C)(C)OC(=O)* Bounds are passed on as bounds.

With `O=C1/C(=C/c2ccc(O)c(O)c2)CCC/C1=C\c1ccc(O)c(O)c1`, the GI50 in the test on M19-MEL is 3.43 µM (inactive); in the test with HOP-18, 2.81 µM (inactive); in the test on SNB-78, 2.11 µM (inactive); in the test with DMS-273, 2.06 µM (inactive); with KM-20L2, 11.6 µM (inactive); with XF498, 3.13 µM (inactive).
Regarding `Oc1cc(-c2ccccc2)c2ccccc2n1`, the GI50 in the test with M19-MEL is 82.6 µM (inactive); in the test on HOP-18, 23.6 µM (inactive); with DMS-114, 12.7 µM (inactive); in the test with DMS-273 it was 60.5 µM (inactive); with LXFL 529 it was 34.2 µM (inactive).
For `CCOC(=O)NN(C(=O)OCC)C(C(=O)c1ccc(Cl)cc1)=C1NCCN1`, the GI50 in the test with M19-MEL, in the test on HOP-18, with SNB-78, in the test with DMS-114, in the test on DMS-273 and with LXFL 529 was > 100 µM (inactive) in each case. Also, the GI50 with KM-20L2 was > 100 µM (inactive); with XF498, 78.9 µM (inactive).
On to `COc1ccccc1/N=N/C(C(=O)c1ccccc1)C(=O)c1ccccc1`, for which the GI50 with M19-MEL was 15 µM (inactive); in the test on DMS-114 it was 15.2 µM (inactive); with DMS-273, 16.4 µM (inactive); in the test on LXFL 529, 15.5 µM (inactive); in the test with KM-20L2, 26.3 µM (inactive); with XF498 it was 19.5 µM (inactive).
For `Cc1ccc(C)c2sc3cc(=O)ccc-3nc12`, the GI50 was 17.3 µM (inactive) in the test on M19-MEL; > 100 µM (inactive) in the test with HOP-18; > 100 µM (inactive) in the test on SNB-78; 30.5 µM (inactive) in the test with DMS-114; 39.2 µM (inactive) with DMS-273; 37.7 µM (inactive) in the test on LXFL 529. In addition, the values for the GI50 in the test on RXF 631 and in the test on KM-20L2 were 92.9 µM (inactive) and 73.3 µM (inactive), respectively.
As for `CCOC(=O)[C@H](CCCNC(=O)OC(C)(C)C)NCc1ccc(OC)c(OC)c1`, the GI50 in the test on M19-MEL, in the test with HOP-18, in the test on DMS-114, with DMS-273, in the test with LXFL 529 and in the test with RXF 631 was > 100 µM (inactive) each time. For the same compound, the GI50 with KM-20L2 and in the test with XF498 was > 100 µM (inactive) in each case.
Take `CC(=O)O[C@H]1CC[C@@]2(C)C(=C/C(=N\[N+](=O)[O-])[C@H]3C4CCC([C@H](C)CCCC(C)C)[C@@]4(C)CCC32)C1` (some centres undefined): the GI50 with M19-MEL, in the test on DMS-114, with DMS-273, in the test on LXFL 529, in the test on KM-20L2 and with XF498 was > 100 µM (inactive) in each case.
Consider `CCOC(=O)NC(=O)c1cn(-c2ccc(CCOC(=O)NCCCCCCNC(=O)OCCc3ccc(-n4c(=O)[nH]cc(C(=O)NC(=O)OCC)c4=O)cc3)cc2)c(=O)[nH]c1=O`, for which the GI50 with M19-MEL was 47 µM (inactive); in the test with HOP-18, > 100 µM (inactive); with SNB-78 it was 58.2 µM (inactive); with DMS-114, > 75.2 µM (inactive); in the test on DMS-273, > 79.8 µM (inactive); with LXFL 529, 22.2 µM (inactive). Further, the GI50 in the test with KM-20L2 was > 100 µM (inactive).
For `CCCCc1c2c(nc3c1CCC/C3=C\c1ccccc1)/C(=C/c1ccccc1)CCC2`, the GI50 with M19-MEL, in the test with DMS-114, in the test on DMS-273, in the test with LXFL 529, in the test on KM-20L2 and in the test on XF498 was > 100 µM (inactive) in each case.
Turning to `CCOC(=O)C1(C)C2=CC=C(O2)C(C)(C)C2=CC=C(O2)C(C)(C)C2=CC=C(O2)C(C)(C)C2=CC=C1O2`, the GI50 in the test on M19-MEL, in the test with HOP-18, with SNB-78, in the test on DMS-273, with LXFL 529 and in the test on RXF 631 was > 100 µM (inactive) throughout. The GI50 in the test on KM-20L2 and with XF498 was > 100 µM (inactive) in each case.
For the compound `N#CC(NNC(=O)Cc1ccccc1)c1ccc(O)cc1` (centres undefined), the GI50 in the test with M19-MEL, in the test on HOP-18, in the test on DMS-114, in the test on DMS-273 and with LXFL 529 was > 100 µM (inactive) throughout.
Consider `C#CCN(C(=O)C(F)(F)F)c1ccc(C(=O)c2ccc(N(CC#C)C(=O)C(F)(F)F)cc2)cc1`, for which the GI50 was 35.5 µM (inactive) with M19-MEL; 52.4 µM (inactive) with SNB-78; 20.7 µM (inactive) in the test on DMS-114; 24.1 µM (inactive) in the test with DMS-273; 27.7 µM (inactive) in the test with LXFL 529; > 100 µM (inactive) with KM-20L2.
As for `O=C(O)c1ccc(S(=O)(=O)c2ccccc2)c([N+](=O)[O-])c1`, the GI50 in the test with M19-MEL is > 100 µM (inactive); in the test with HOP-18 it was > 100 µM (inactive); with SNB-78 it was > 100 µM (inactive); in the test on DMS-114, > 100 µM (inactive); in the test on DMS-273, 63.8 µM (inactive); in the test on LXFL 529, > 100 µM (inactive). Further, the GI50 in the test on KM-20L2 is > 100 µM (inactive).
As to `CCOC(=O)C1=C(Nc2ccc(Br)cc2)OC/C1=N\NC(=O)c1ccccc1O`, the GI50 is 35 µM (inactive) with M19-MEL; 70.5 µM (inactive) in the test on HOP-18; 7.93 µM (inactive) with SNB-78; 4.69 µM (inactive) in the test with DMS-273; 14.5 µM (inactive) with LXFL 529; > 60 µM (inactive) in the test with KM-20L2.
For the compound `C[Si](C)(C)C(CCCCSc1ccccc1)(Sc1ccccc1)Sc1ccccc1`, the GI50 was > 100 µM (inactive) in the test on M19-MEL; > 100 µM (inactive) in the test on SNB-78; > 100 µM (inactive) in the test on DMS-114; > 100 µM (inactive) in the test with DMS-273; 78.2 µM (inactive) in the test with LXFL 529; > 100 µM (inactive) with RXF 631. Moreover, the GI50 in the test with KM-20L2 is > 10 µM (inactive); in the test with XF498, > 100 µM (inactive).
`Oc1cc(C2OCCCO2)cc(O)c1O`: the GI50 in the test with M19-MEL, with HOP-18, in the test with SNB-78, in the test with DMS-114, in the test with DMS-273 and in the test on LXFL 529 was > 100 µM (inactive) throughout. Moreover, the GI50 in the test with RXF 631 and in the test with KM-20L2 was > 100 µM (inactive) each time.
On to `CC(=O)NC(CC(C)C)C(=O)NC(Cc1ccccc1)C(=S)N1CCCC1` (centres undefined), for which the GI50 with M19-MEL, in the test with DMS-114, in the test on DMS-273, with LXFL 529, in the test with RXF 631 and in the test on KM-20L2 was > 100 µM (inactive) in each case. Moreover, the GI50 in the test on XF498 was > 100 µM (inactive).
In the case of `CC(C)(C)c1ccc(OC2CCO2)cc1` (centres undefined), the GI50 in the test with M19-MEL was 23.1 µM (inactive); with HOP-18, > 100 µM (inactive); in the test on SNB-78 it was 49.9 µM (inactive); with DMS-114, 39.5 µM (inactive); with DMS-273, 34.4 µM (inactive); in the test with LXFL 529, 54.6 µM (inactive). Also, in the test with KM-20L2, the GI50 is 19.5 µM (inactive).
On to `COC(=O)C1C=CCC2CCCCC21N1CCCC1` (centres undefined), for which the GI50 with M19-MEL was 59.3 µM (inactive); in the test on HOP-18, > 100 µM (inactive); with SNB-78, > 100 µM (inactive); in the test on DMS-114, 36.1 µM (inactive); with DMS-273 it was > 100 µM (inactive); with LXFL 529, 81.5 µM (inactive). The GI50 in the test with RXF 631 was > 100 µM (inactive); in the test on KM-20L2, 83.2 µM (inactive).
In the case of `O=c1cnn2c(n1)sc1ccc3ccccc3c12`, the GI50 with M19-MEL, with HOP-18, in the test on SNB-78, in the test on DMS-114, in the test with DMS-273 and in the test on LXFL 529 was > 100 µM (inactive) in each case. Moreover, the GI50 in the test with KM-20L2 and with XF498 was > 100 µM (inactive) in each case.
For the compound `CC(C)NC(C)Cc1ccccc1` (centres undefined), the GI50 with M19-MEL, in the test on HOP-18, in the test on SNB-78, in the test on DMS-114, in the test with DMS-273 and in the test with LXFL 529 was > 100 µM (inactive) each time. Further, the GI50 in the test with RXF 631 and in the test on KM-20L2 was > 100 µM (inactive) in each case.
Take `CCC(=O)N/N=C(\C=C\c1cccc(O)c1)c1sc(Nc2ccc(C)cc2[N+](=O)[O-])nc1C`: the GI50 in the test with M19-MEL, in the test on HOP-18, in the test on SNB-78, in the test with DMS-114, in the test with DMS-273 and in the test on LXFL 529 was > 100 µM (inactive) in each case. Further, the GI50 with KM-20L2 is > 100 µM (inactive).
`COC(=O)/C(C)=C(/CCC1(C)OCCO1)O[Si](C)(C)C`: the GI50 in the test with M19-MEL, with HOP-18, in the test on SNB-78, in the test with DMS-114, in the test on DMS-273 and with LXFL 529 was > 100 µM (inactive) throughout. In addition, the GI50 in the test on KM-20L2 and with XF498 was > 100 µM (inactive) throughout.
As to `COC(=O)[C@H](C)N(C)C(=O)C(CC(N)=O)N(C)C(=O)[C@H](Cc1ccccc1)N(C)C(=O)[C@@H]1CCCN1C(=O)[C@H](C(C)C)N(C)C(=O)C(C(C)C)N(C)C(=O)[C@@H](NC(=O)OC(C)(C)C)C(C)C` (some centres undefined) (Boc-V[ξNMeV][NMeV]P[NMeF][ξNMeN][NMeA]-OMe), the GI50 was 18.4 µM (inactive) in the test on M19-MEL; 50.6 µM (inactive) in the test with SNB-78; 16.8 µM (inactive) in the test on DMS-114; 55.5 µM (inactive) in the test with DMS-273; 24.2 µM (inactive) in the test on LXFL 529; 39.2 µM (inactive) in the test with KM-20L2. In addition, the GI50 with XF498 is 26.7 µM (inactive).
Turning to `C[C@H]1C/C=C/[C@H]2[C@@H]3O[C@]3(C)[C@@H](C)[C@H]3[C@H](Cc4ccccc4)NC(=O)[C@]32OC(=O)O/C=C/[C@@](C)(O)C1=O` [CYTOCHALASIN E], the GI50 was 0.0759 µM (active) in the test with M19-MEL; 0.0189 µM (active) with SNB-78; 0.0548 µM (active) with DMS-114; 0.091 µM (active) with DMS-273; 0.0248 µM (active) in the test on KM-20L2; 0.0183 µM (active) with XF498.
